Test results as given in the supplement of paper PMC10307832.

Assays:
Test in all cases: relative viability (nuclei count vs DMSO), 5 days (fraction); higher = more cells survive
RERF-LC-KJ = system: RERF-LC-KJ
How it was run: (§1)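 Five library-drug doses in √10 steps were combined with a fixed anchor-drug dose, or a single drug was given alone, by pin tool to lung cancer cell lines in 1536-well plates the day after seeding. Nuclei were stained and counted after 5 days. Relative viability is the nuclei count in treated wells over that in vehicle wells, taken as the median of duplicate plates.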

NCI-H1734 = system: NCI-H1734
How it was run: as §1

NCI-H661 = system: NCI-H661
How it was run: as §1

NCI-H1975 = system: NCI-H1975
How it was run: as §1

NCI-H1650 = system: NCI-H1650
How it was run: as §1

LCLC-97TM1 = system: LCLC-97TM1
How it was run: as §1

NCI-H2228 = system: NCI-H2228
How it was run: as §1

HCC-827 = system: HCC-827
How it was run: as §1

PC-3 [JPC-3] = system: PC-3 [JPC-3]
How it was run: as §1

HCC-15 = system: HCC-15
How it was run: as §1

NCI-H1755 = system: NCI-H1755
How it was run: as §1

CAL-12T = system: CAL-12T
How it was run: as §1

H3255 = system: H3255
How it was run: as §1

NCI-H322M = system: NCI-H322M
How it was run: as §1

EKVX = system: EKVX
How it was run: as §1

PC-14 = system: PC-14
How it was run: as §1

NCI-H1355 = system: NCI-H1355
How it was run: as §1

NCI-H520 = system: NCI-H520
How it was run: as §1

NCI-H2342 = system: NCI-H2342
How it was run: as §1

NCI-H2405 = system: NCI-H2405
How it was run: as §1

LK-2 = system: LK-2
How it was run: as §1

CCN(CC)CCCCNc1ncc2cc(-c3cc(OC)cc(OC)c3)c(NC(=O)NC(C)(C)C)nc2n1 + O=C(c1cc(Cc2n[nH]c(=O)c3ccccc23)ccc1F)N1CCN(C(=O)C2CC2)CC1 [Olaparib] (partner 8 µM) showed a relative viability (RERF-LC-KJ; first compound 0.01 µM) of 1.01, a relative viability (RERF-LC-KJ; first compound 0.03162 µM) of 0.92 and a relative viability (RERF-LC-KJ; first compound 0.1 µM) of 1.12. The relative viability (RERF-LC-KJ; first compound 0.3162 µM) was 1.05, the relative viability (RERF-LC-KJ; first compound 1 µM) was 0.963 and the relative viability (NCI-H1734; first compound 0.01 µM) was 0.595. It also gave a relative viability (NCI-H1734; first compound 0.03162 µM) of 0.614, a relative viability (NCI-H1734; first compound 0.1 µM) of 0.746 and a relative viability (NCI-H1734; first compound 0.3162 µM) of 0.638. For the same compound, the relative viability (NCI-H1734; first compound 1 µM) was 0.569, the relative viability (NCI-H661; first compound 0.01 µM) was 0.702 and the relative viability (NCI-H661; first compound 0.03162 µM) was 0.713. For the same compound, the relative viability (NCI-H661; first compound 0.1 µM) was 0.788, the relative viability (NCI-H661; first compound 0.3162 µM) was 0.822 and the relative viability (NCI-H661; first compound 1 µM) was 0.739. The relative viability (NCI-H1975; first compound 0.01 µM) was 0.85, the relative viability (NCI-H1975; first compound 0.03162 µM) was 0.791 and the relative viability (NCI-H1975; first compound 0.1 µM) was 1.05. For the same compound, the relative viability (NCI-H1975; first compound 0.3162 µM) was 0.903, the relative viability (NCI-H1975; first compound 1 µM) was 0.708 and the relative viability (NCI-H1650; first compound 0.01 µM) was 0.815. The relative viability (NCI-H1650; first compound 0.03162 µM) was 0.819, the relative viability (NCI-H1650; first compound 0.1 µM) was 0.822 and the relative viability (NCI-H1650; first compound 0.3162 µM) was 0.635. The relative viability (NCI-H1650; first compound 1 µM) was 0.676, the relative viability (LCLC-97TM1; first compound 0.01 µM) was 0.413 and the relative viability (LCLC-97TM1; first compound 0.03162 µM) was 0.399. The relative viability (LCLC-97TM1; first compound 0.1 µM) was 0.479, the relative viability (LCLC-97TM1; first compound 0.3162 µM) was 0.512 and the relative viability (LCLC-97TM1; first compound 1 µM) was 0.222. It also gave a relative viability (NCI-H2228; first compound 0.01 µM) of 0.799, a relative viability (NCI-H2228; first compound 0.03162 µM) of 0.8 and a relative viability (NCI-H2228; first compound 0.1 µM) of 0.824. The relative viability (NCI-H2228; first compound 0.3162 µM) was 0.547, the relative viability (NCI-H2228; first compound 1 µM) was 0.571 and the relative viability (HCC-827; first compound 0.01 µM) was 0.611. For the same compound, the relative viability (HCC-827; first compound 0.03162 µM) was 0.668, the relative viability (HCC-827; first compound 0.1 µM) was 0.702 and the relative viability (HCC-827; first compound 0.3162 µM) was 0.682. The relative viability (HCC-827; first compound 1 µM) was 0.735, the relative viability (PC-3 [JPC-3]; first compound 0.03162 µM) was 1.08 and the relative viability (PC-3 [JPC-3]; first compound 0.1 µM) was 1.29. It also gave a relative viability (PC-3 [JPC-3]; first compound 0.3162 µM) of 1.19, a relative viability (PC-3 [JPC-3]; first compound 1 µM) of 1.07 and a relative viability (HCC-15; first compound 0.01 µM) of 0.681. The relative viability (HCC-15; first compound 0.03162 µM) was 0.777, the relative viability (HCC-15; first compound 0.1 µM) was 0.783 and the relative viability (HCC-15; first compound 0.3162 µM) was 0.82. The relative viability (HCC-15; first compound 1 µM) was 0.728, the relative viability (NCI-H1755; first compound 0.01 µM) was 0.874 and the relative viability (NCI-H1755; first compound 0.03162 µM) was 0.947. The relative viability (NCI-H1755; first compound 0.1 µM) was 0.958, the relative viability (NCI-H1755; first compound 0.3162 µM) was 1.01 and the relative viability (NCI-H1755; first compound 1 µM) was 0.934. It also gave a relative viability (CAL-12T; first compound 0.01 µM) of 0.678, a relative viability (CAL-12T; first compound 0.03162 µM) of 0.78 and a relative viability (CAL-12T; first compound 0.1 µM) of 0.829. For the same compound, the relative viability (CAL-12T; first compound 0.3162 µM) was 0.845, the relative viability (CAL-12T; first compound 1 µM) was 0.763 and the relative viability (H3255; first compound 0.01 µM) was 0.567. The relative viability (H3255; first compound 0.03162 µM) was 0.52, the relative viability (H3255; first compound 0.1 µM) was 0.581 and the relative viability (H3255; first compound 0.3162 µM) was 0.575. The relative viability (H3255; first compound 1 µM) was 0.558, the relative viability (NCI-H322M; first compound 0.01 µM) was 0.784 and the relative viability (NCI-H322M; first compound 0.03162 µM) was 0.638. The relative viability (NCI-H322M; first compound 0.1 µM) was 0.745, the relative viability (NCI-H322M; first compound 0.3162 µM) was 0.82 and the relative viability (NCI-H322M; first compound 1 µM) was 0.76. The relative viability (EKVX; first compound 0.03162 µM) was 0.873, the relative viability (EKVX; first compound 0.1 µM) was 1.07 and the relative viability (EKVX; first compound 0.3162 µM) was 1.05. The relative viability (EKVX; first compound 1 µM) was 0.868, the relative viability (PC-14; first compound 0.01 µM) was 0.318 and the relative viability (PC-14; first compound 0.03162 µM) was 0.341. The relative viability (PC-14; first compound 0.1 µM) was 0.292, the relative viability (PC-14; first compound 0.3162 µM) was 0.278 and the relative viability (PC-14; first compound 1 µM) was 0.236. For the same compound, the relative viability (NCI-H1355; first compound 0.01 µM) was 0.789, the relative viability (NCI-H1355; first compound 0.03162 µM) was 0.719 and the relative viability (NCI-H1355; first compound 0.1 µM) was 0.853. For the same compound, the relative viability (NCI-H1355; first compound 0.3162 µM) was 0.83, the relative viability (NCI-H1355; first compound 1 µM) was 0.737 and the relative viability (NCI-H520; first compound 0.01 µM) was 0.367. The relative viability (NCI-H520; first compound 0.03162 µM) was 0.377, the relative viability (NCI-H520; first compound 0.1 µM) was 0.318 and the relative viability (NCI-H520; first compound 0.3162 µM) was 0.272. For the same compound, the relative viability (NCI-H520; first compound 1 µM) was 0.261, the relative viability (NCI-H2342; first compound 0.01 µM) was 0.476 and the relative viability (NCI-H2342; first compound 0.03162 µM) was 0.437. The relative viability (NCI-H2342; first compound 0.1 µM) was 0.459, the relative viability (NCI-H2342; first compound 0.3162 µM) was 0.509 and the relative viability (NCI-H2342; first compound 1 µM) was 0.519. The relative viability (NCI-H2405; first compound 0.01 µM) was 0.873, the relative viability (NCI-H2405; first compound 0.03162 µM) was 0.88 and the relative viability (NCI-H2405; first compound 0.1 µM) was 1.03. It also gave a relative viability (NCI-H2405; first compound 0.3162 µM) of 0.952, a relative viability (NCI-H2405; first compound 1 µM) of 0.928 and a relative viability (LK-2; first compound 0.01 µM) of 0.634. The relative viability (LK-2; first compound 0.03162 µM) was 0.547, the relative viability (LK-2; first compound 0.1 µM) was 0.714 and the relative viability (LK-2; first compound 0.3162 µM) was 0.457. For the same compound, the relative viability (LK-2; first compound 1 µM) was 0.226.
